Data set [1] in a line: Quartz crystal microbalance weight loss of amine-treated iron surface in unstirred 0.5 M sodium sulfate solution. The conditions noted are these: for percent wt. loss: amine-treated iron surface, 6.5 hours in unstirred 0.5 M Na2SO4 (pH=5.8); for time when wt. loss commenced: unstirred 0.5 M Na2SO4 (pH=5.8), 6.5 hours. As to the method:
Weightloss measurements were performed by immersing the amine-coated iron surface in 0.5 M sodium sulfate solution (pH=5.8), and comparing the results observed with those obtained in case of an unprotected iron surface. From the results achieved, the following four major conclusions follow:
Table I below correlates the pKa of an amine with the percentage weight loss observed (using the quartz crystal microbalance technique) when the amine-treated iron surface was immersed for 6.5 hours in 0.5 M Na2SO4 solution (pH=5.8). See pKa prediction of organic acids and bases, D. D. Perrin, B. Dempsey, E. P. Serjeant (1981), Chapman and Hall. Physical methods in Heterocyclic Chemistry Vol. 1, A. A. Katritzky (1963), Academic Press.

Data set [2] is described as follows: QCM weight loss of amine-treated iron deposit in "open" pH 2.6 sulfate solution.
The nature of data set [3]: Quartz crystal microbalance weight loss of amine-treated iron surface in unstirred 0.5 M sodium sulfate solution. Conditions: "open" pH 5.9 sulfate solution.
The conditions of data set [4]: cited from earlier work.
Data set [5] in a line: QCM weight loss of DBU-treated iron deposit in Ar-purged pH 2.6 sulfate solution. The conditions noted are these: no dissolved oxygen, pH 2.6 sodium sulfate solution. As to the method: This conclusion was arrived at by examining the effect of DBU on the corrosion of iron in Ar-purged (no dissolved oxygen) pH 2.6 (acidic) sodium sulfate solution using the QCM technique, and comparing the results obtained with those recorded in “open” (oxygen containing) pH 2.6 and 5.9 solutions.
The apparatus for the experiments performed under purged conditions (as illustrated in FIG. 6) consists of a 500 ml Pyrex reaction vessel with a 4-necked cover. The reaction vessel and the cover are retained intact together during the experiment with the aid of a horse-shoe clamp. The QCM is inserted through the central neck, after plating the iron deposit onto the crystal. A pH electrode is inserted through one of the necks, and an inlet for Ar gas through the other. The fourth neck is stoppered when not used. The pH 2.6 sulfate solution is purged with Ar gas for 1 hour before exposure of the iron deposit (protected/unprotected) to the environment. See D. D. Perrin, B. Dempsey, E. P. Serjeant, pKa prediction of organic acids and bases, Chapman and Hall, 1981. A. A. Katritzky, Physical methods in Heterocyclic Chemistry Vol. 1, Academic Press, 1963. […]
The DBU-treated iron deposit was immersed in the Ar-purged pH 2.6 solution, and the weightloss and corresponding pH measurements recorded are plotted in FIGS. 7A and 7B. […]

Data set [6] is described as follows: EQCM amine inhibition of iron corrosion in corrosive phosphate buffer (pH 5.7). Conditions: 15 mM amine. An excerpt:
(§1) All the test solutions were buffered so that the effect of pH variation can be eliminated as much as possible. Thus, amine inhibition effectiveness is directly related to the strength of adsorption of the amine and its molecular structure, independent of pH effects. Here, borate buffer (pH 8.4) was used as passivating environment, whereas phosphate buffer (pH 5.7) was used as corrosive environment.
(§2) Plating of iron deposit (1 u thick) onto the polished gold crystal of the QCM electrode was accomplished from a 200 ml aqueous solution with the following composition:
(§3) For the corrosion inhibition studies, the deposit was immersed in a corrosive buffer solution (phosphate, pH 5.7) for 40 min. for equilibration, and then 15 mM amine was added to the solution.
(§4) Deaerated test solutions (no dissolved O2) are prepared by purging the test solutions with argon for 2 hours before the tests and also during the tests.

Data set [7] in a line: FTIR phase identification of iron oxides on steel samples exposed to amine containing steam. The conditions noted are these: for hematite in samples exposed for four hours (FTIR): four hours exposure; for exposure time at which hematite formation was observed (FTIR): steam with 3 ppm DBU or 5 ppm morpholine.
From the text: The main purpose of this analysis was to observe the relative delay in magnetite transformation to hematite.
Amorphous crystals will produce a variation in peak width, and a slight shift on IR values (Cornell R., and Schwertmann U., 1996). […] Oxyhydroxides absorption hands are as follows: α-FeOOH is known to have a deep well defined pair of sharp peaks at 890 and 795 cm^−1, γ-FeOOH presents an enunciated and deep peak at 1018 cm^−1. β-FeOOH was not expected to be present in the experiment conditions.
FIGS. 42 and 43 show the FTIR spectra of iron oxides formed on steel samples exposed to steam containing 3 ppm of DBU.
FIGS. 46 and 47 show the FTIR spectra of iron oxides formed on steel samples exposed to steam containing 3 ppm of DMA.
Data set [8] is described as follows: Weight loss of AISI 1018 steel coupons exposed to amine containing steam at 250° F. The conditions noted are these: 250° F. steam, compared to plain steam.
Data set [9] is described as follows: EQCM amine adsorption on iron in passivating borate buffer (pH 8.4). The conditions noted are these: 15 mM amine.
From the text: as §1, §2
(§5) For adsorption studies, the deposit was immersed in a passivating buffered solution (borate, pH 8.4, prepared as cited above) for 40 rain. for equilibration, after which 15 mM amine was added to the solution. The variation in frequency upon addition of the amine is quantitatively proportional to the amine adsorbed on the surface of the metal (Sauerbrey equation).
as §4

A short description of data set [10]: EQCM aniline inhibition of nickel corrosion in phosphate buffer (pH 5.7). Conditions: phosphate buffer pH 5.7, aerated. The procedure: (§6) Plating of black nickel deposit (1 u thick) onto the polished gold crystal of the QCM electrode was accomplished from a 200 ml aqueous solution with the following composition:
as §3

A short description of data set [11]: EQCM aniline adsorption on nickel in borate buffer (pH 8.4). The conditions noted are these: borate buffer pH 8.4, aerated. The procedure:
as §6, §5

[12] abbreviates: phosphate buffer pH 5.7, aerated.
Where [13] appears, read: phosphate buffer pH 5.7, deaerated.
The mark [14] stands for this setting: borate buffer pH 8.4, deaerated.

SMILES strings stand for the structures. Several values for one entry are separate records, joined by “and”; a condition that tells them apart may be missing. Equal entries are not always repeated. Entries after “also recorded” stand apart in the source; their conditions may differ. Where two headings read alike, the source gives them in different places.

For `COCCCN` [3-methoxypropylamine], in data set [1], the percent wt. loss is recorded as 0% and the “time when wt. loss commenced” value is on record as “no wt. loss”. Besides, the “effectiveness as corrosion inhibitor in acidic solution” value (“effectiveness as corrosion inhibitor” below) in [2] ("open" pH 2.6 solution) is reported as “not effective inhibitors”. The “% wt. loss in pH 2.6 solution” value in data set [2] ("open" pH 2.6 solution, over 60 minutes, probe failed after 60 minutes) is 11.19% and 11.19 (probe failed %. In addition, the “% wt. loss in pH 5.9 solution” value in data set [3] was determined as 0%.
`NCCCCCO` [5-amino-1-pentanol]: in data set [1], the percent wt. loss was found to be 4.106% and the “time when wt. loss commenced” value came out at 90 min. In addition, the “% wt. loss in pH 5.9 solution” value in data set [3] is given as 4.106%. Besides, in data set [4] (Table II, 23° C.), the pKa is 10.46 (23° C.).
For the compound `C1CCC2=NCCCN2CC1` [DBU, 1,8-diazabicyclo[5.4.0]undec-7-ene], in data set [1], the percent wt. loss is given as 0% and the “time when wt. loss commenced” value is recorded as “no wt. loss”. Moreover, the “effectiveness as corrosion inhibitor” value in data set [2] ("open" pH 2.6 solution) is listed as “good corrosion inhibitors”. Also, the “% wt. loss in pH 2.6 solution” value in data set [2] ("open" pH 2.6 sulfate solution) stood at 7.2%. The “weightloss in Ar-purged pH 2.6 solution” value in data set [5] is “extensive weightless”. Further, the “inhibition of iron corrosion” value in [6] (setting [12]) is “stops corrosion; also recorded: inhibition”. In data set [6] (setting [13]), the “inhibition of iron corrosion” value is “none of them can stop the iron corrosion; also recorded: no effect”. For the same compound, in [7], the “hematite in samples exposed for four hours (FTIR)” value (from here on “hematite in samples exposed”) is given as “no hematite was detected” and the “exposure time at which hematite formation was observed (FTIR)” value came out at 12 h. The “weight loss / corrosion rate of steel coupons in steam” value (“weight loss / corrosion rate” below) in data set [8] is reported as “lowest corrosion rate”. The “adsorption on iron surface” value in data set [9] (borate buffer pH 8.4, aerated) is “forms a monolayer initially and then multilayers; also recorded: Adsorption”. Further, the “adsorption on iron surface” value in [9] (setting [14]) is “still can adsorb on the iron surface; also recorded: adsorption”. Also, the “% wt. loss in pH 5.9 solution” value in data set [3] came out at 0%.
Compound `CCCCNCCCC` [N,N-dibutylamine] showed a percent wt. loss in data set [1] of 9.3%. The “time when wt. loss commenced” value in data set [1] is 161 minutes, expt. Also, the “inhibition of iron corrosion” value was “oxide growth is noted after its adsorption; also recorded: inhibition” in [6] (phosphate buffer pH 5.7, aerated, listed as DBA) and “none of them can stop the iron corrosion; also recorded: no effect” in data set [6] (phosphate buffer pH 5.7, deaerated, listed as DBA). Also, the “adsorption on iron surface” value is reported as “adsorbs on iron surface; also recorded: adsorption” in [9] (borate buffer pH 8.4, aerated, listed as DBA) and “still can adsorb on the iron surface; also recorded: adsorption” in data set [9] (borate buffer pH 8.4, deaerated, listed as DBA). Also, in data set [3], the “% wt. loss in pH 5.9 solution” value amounted to 9.3%. Also, the “pKa at 25° C.” value in [4] (Table I and text) is on record as 11.25; in data set [4] (Table II), 11.25.
Regarding `Nc1ccccc1` [aniline], the “inhibition of iron corrosion” value in data set [6] (setting [12]) was “no effect on inhibition”. For the same compound, the “inhibition of nickel corrosion” value in data set [10] is “inhibition”. Moreover, the “adsorption on nickel surface” value in data set [11] is given as “adsorption”. Besides, the “adsorption on iron surface” value is reported as “does not have any adsorption” in data set [9] (borate buffer pH 8.4, aerated); “no” in data set [9] (borate buffer pH 8.4, aerated, listed as Aniline); “no” in data set [9] (setting [14]).
In [1] (listed as diisoproplyamine), `CC(C)NC(C)C` [diisopropylamine] yielded a percent wt. loss of 0%. Further, the “time when wt. loss commenced” value in [1] is given as “no wt. loss”. Besides, the “effectiveness as corrosion inhibitor” value in data set [2] ("open" pH 2.6 solution) is recorded as “not effective inhibitors”. In data set [2] ("open" pH 2.6 sulfate solution), the “% wt. loss in pH 2.6 solution” value was found to be 99.23%. For the same compound, the “% wt. loss in pH 5.9 solution” value in data set [3] is given as 0%.
Take `CNC` [dimethylamine]: in [1], the percent wt. loss came out at 0.793% and the “time when wt. loss commenced” value is 30 min. In addition, the “effectiveness as corrosion inhibitor” value in data set [2] ("open" pH 2.6 solution) is “not effective inhibitors”. Moreover, the “% wt. loss in pH 2.6 solution” value in [2] ("open" pH 2.6 sulfate solution) is 98.4%. For the same compound, in data set [7], the “hematite in samples exposed” value is “no hematite was detected”. In addition, the “weight loss / corrosion rate” value in [8] is “oxidation rates less favorable”. The “% wt. loss in pH 5.9 solution” value in data set [3] was found to be 0.793%.
Turning to `C1COCCN1` [morpholine], in [1], the percent wt. loss was 8.87% and the “time when wt. loss commenced” value was 110 min. Also, in data set [6] (setting [12]), the “inhibition of iron corrosion” value is “slow and weak”. Besides, the “inhibition of iron corrosion” value in [6] (setting [13]) was “none of them can stop the iron corrosion”. For the same compound, in data set [7], the “hematite in samples exposed” value is recorded as “some hematite presence” and the “exposure time at which hematite formation was observed (FTIR)” value is “started after two hours of exposure”. For the same compound, in data set [8], the “weight loss / corrosion rate” value is listed as “oxidation rates less favorable”. Further, the “adsorption on iron surface” value in data set [9] (borate buffer pH 8.4, aerated) is “only weak adsorption; also recorded: little”. The “adsorption on iron surface” value in data set [9] (setting [14]) is given as “still can adsorb on the iron surface; also recorded: little”. Besides, the “% wt. loss in pH 5.9 solution” value in data set [3] was 8.87%.
Turning to `C1CCNCC1` [piperidine], in [1], the percent wt. loss is listed as 0.57% and the “time when wt. loss commenced” value stood at 350 min. The “effectiveness as corrosion inhibitor” value in [2] ("open" pH 2.6 solution) is listed as “good corrosion inhibitors”. Moreover, the “% wt. loss in pH 2.6 solution” value in data set [2] ("open" pH 2.6 sulfate solution) came out at 10.9%. The “% wt. loss in pH 5.9 solution” value in data set [3] is on record as 0.57%.
